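Growth conditions: 96-well plates. Treatment: test compound, 48 hours, 5 concentrations. Analysis: linear interpolation between bracketing concentrations; unreached endpoints set to highest concentration. GI50 = concentration required for 50% inhibition of growth. TGI: total growth inhibition.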
Columns and labels:
Experiment in all cases: NCI tumour cell line growth inhibition, 48 h
SK-OV-3 ovarian = tested on: SK-OV-3 ovarian
SNB-19 CNS = tested on: SNB-19 CNS
SNB-75 CNS = tested on: SNB-75 CNS
DLD-1 colon = tested on: DLD-1 colon
DMS 114 small cell lung = tested on: DMS 114 small cell lung
DMS 273 small cell lung = tested on: DMS 273 small cell lung
HCT-15 colon = tested on: HCT-15 colon
KM20L2 colon = tested on: KM20L2 colon
LXFL 529 NSCLC = tested on: LXFL 529 NSCLC
NCI-H460 lung = tested on: NCI-H460 lung
RPMI-8226 leukemia = tested on: RPMI-8226 leukemia
SF-295 CNS = tested on: SF-295 CNS
TK-10 renal = tested on: TK-10 renal

| Compound | GI50 (SK-OV-3 ovarian) | TGI (SK-OV-3 ovarian) | GI50 (SNB-19 CNS) | TGI (SNB-19 CNS) | GI50 (SNB-75 CNS) | TGI (SNB-75 CNS) | TGI (DLD-1 colon) | TGI (DMS 114 small cell lung) | TGI (DMS 273 small cell lung) | TGI (HCT-15 colon) | TGI (KM20L2 colon) | TGI (LXFL 529 NSCLC) | TGI (NCI-H460 lung) | TGI (RPMI-8226 leukemia) | TGI (SF-295 CNS) | TGI (TK-10 renal) |
| --- | --- | --- | --- | --- | --- | --- | --- | --- | --- | --- | --- | --- | --- | --- | --- | --- |
| COc1ccc(CNCCN2C(=O)c3ccc4c5c(ccc(c35)C2=O)C(=O)N(CCNCc2ccc(OC)c(OC)c2OC)C4=O)c(OC)c1OC | 1.67 µM | 50 µM | 0.429 µM | 4.13 µM | 0.903 µM | 2.09 µM | – | – | – | – | – | – | – | – | – | – |
| C#CCN1C(=O)CN2C(Cl)(Cl)C2(c2ccccc2)c2cc(Cl)ccc21 (stereo unspecified) | – | – | – | – | – | – | > 100 µM | > 100 µM | > 100 µM | > 100 µM | > 100 µM | > 100 µM | > 100 µM | > 100 µM | > 100 µM | > 100 µM |

Reference: PubChem BioAssay (NCI)
